Assay results: patent publication US10738028B2, “Spiro three-membered ring, spiro five-membered ring peptide deformylase inhibitor and use thereof in antibacteria and anti-tumor” (priority 2016, dated 2020)

Key:
Type in all cases: cell-based
[1] = tested on: Enterococcus faecalis (EFA); test: MIC, two-fold agar dilution (CLSI), clinical isolates
Summary of the method: (§1)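 Following the American Clinical and Laboratory Standards Institute procedure, agar two-fold dilution served to determine minimum inhibitory concentrations.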

[2] = tested on: Enterococcus faecium (EFM); test: as above
Summary of the method: as §1

[3] = tested on: Escherichia coli (including ESBLs, non-ESBLs); test: as above
Summary of the method: as §1

[4] = tested on: Moraxella catarrhalis (BCA); test: as above
Summary of the method: as §1

[5] = tested on: Streptococcus pneoumoniae (SPN); test: as above
Summary of the method: as §1

[6] = tested on: methicillin-resistant Staphylococcus aureus (MRSA); test: as above
Summary of the method: as §1

[7] = tested on: methicillin-resistant Staphylococcus epidermidis (MRSE); test: as above
Summary of the method: as §1

[8] = tested on: methicillin-sensitive Staphylococcus aureus (MSSA); test: as above
Summary of the method: as §1

[9] = tested on: methicillin-sensitive Staphylococcus epidermidis (MSSE); test: as above
Summary of the method: as §1

[10] = tested on: HCT-116 colorectal cancer cell line; test: CCK-8 proliferation inhibition; details: Homo sapiens, HCT-116, 72 h, concentration of 30 μM; 72 hours; CCK-8; read-out: HCT116 inhibition rate/%
Summary of the method: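 Growth inhibition is read by CCK-8 (1:10 dilution) after 72 h of compound exposure. HCT-116 cells grow in McCoy's 5A containing 10% newborn bovine serum at 2000 cells/well, with 1‰ DMSO as vehicle control.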

CCCC[C@H](CC(=O)NO)C(=O)N1CC2(CC2)C[C@H]1c1nc2ccccc2[nH]1 [Example 58, (R)-3-((S)-6-(1H-benzimidazol-2-yl)-5-azaspiro[2.4]heptane-5-formyl)-N-hydroxyheptanamide]
> 32 µg/mL: Anti-bacterial activity (MIC), strain EFA 15-1 ([1]; clinical isolate EFA 15-1) | Anti-bacterial activity (MIC), strain EFA 15-2 ([1]; clinical isolate EFA 15-2) | Anti-bacterial activity (MIC), strain EFA 15-3 ([1]; clinical isolate EFA 15-3) | Anti-bacterial activity (MIC), strain EFA 15-4 ([1]; clinical isolate EFA 15-4) | Anti-bacterial activity (MIC), strain EFA 15-5 ([1]; clinical isolate EFA 15-5) | Anti-bacterial activity (MIC), strain EFA 15-6 ([1]; clinical isolate EFA 15-6) | Anti-bacterial activity (MIC), strain EFA 15-9 ([1]; clinical isolate EFA 15-9) | Anti-bacterial activity (MIC), strain EFM 15-1 ([2]; clinical isolate EFM 15-1) | Anti-bacterial activity (MIC), strain EFM 15-2 ([2]; clinical isolate EFM 15-2) | Anti-bacterial activity (MIC), strain EFM 15-3 ([2]; clinical isolate EFM 15-3) | Anti-bacterial activity (MIC), strain ECO+ 15-1 ([3]; clinical isolate ECO+ 15-1) | Anti-bacterial activity (MIC), strain ECO+ 15-2 ([3]; clinical isolate ECO+ 15-2) | Anti-bacterial activity (MIC), strain ECO+ 15-3 ([3]; clinical isolate ECO+ 15-3) | Anti-bacterial activity (MIC), strain ECO+ 15-4 ([3]; clinical isolate ECO+ 15-4) | Anti-bacterial activity (MIC), strain ECO− 15-1 ([3]; clinical isolate ECO− 15-1) | Anti-bacterial activity (MIC), strain ECO− 15-2 ([3]; clinical isolate ECO− 15-2) | Anti-bacterial activity (MIC), strain ECO− 15-3 ([3]; clinical isolate ECO− 15-3) | Anti-bacterial activity (MIC), strain ECO− 15-4 ([3]; clinical isolate ECO− 15-4) | Anti-bacterial activity (MIC), strain BCA 14-1 ([4]; clinical isolate BCA 14-1) | Anti-bacterial activity (MIC), strain BCA 14-4 ([4]; clinical isolate BCA 14-4) | Anti-bacterial activity (MIC), strain BCA 14-6 ([4]; clinical isolate BCA 14-6) | Anti-bacterial activity (MIC), strain BCA 14-7 ([4]; clinical isolate BCA 14-7) | Anti-bacterial activity (MIC), strain BCA 14-8 ([4]; clinical isolate BCA 14-8) | Anti-bacterial activity (MIC), strain BCA 14-10 ([4]; clinical isolate BCA 14-10) | Anti-bacterial activity (MIC), strain SPN 16-4 ([5]; clinical isolate SPN 16-4) | Anti-bacterial activity (MIC), strain MRSA 15-1 ([6]; clinical isolate MRSA 15-1) | Anti-bacterial activity (MIC), strain MRSA 15-2 ([6]; clinical isolate MRSA 15-2) | Anti-bacterial activity (MIC), strain MRSA 15-3 ([6]; clinical isolate MRSA 15-3) | Anti-bacterial activity (MIC), strain MRSA 15-4 ([6]; clinical isolate MRSA 15-4) | Anti-bacterial activity (MIC), strain MRSE 15-1 ([7]; clinical isolate MRSE 15-1) | Anti-bacterial activity (MIC), strain MRSE 15-2 ([7]; clinical isolate MRSE 15-2) | Anti-bacterial activity (MIC), strain MRSE 15-3 ([7]; clinical isolate MRSE 15-3) | Anti-bacterial activity (MIC), strain MRSE 15-7 ([7]; clinical isolate MRSE 15-7) | Anti-bacterial activity (MIC), strain MSSA 15-3 ([8]; clinical isolate MSSA 15-3) | Anti-bacterial activity (MIC), strain MSSA 15-4 ([8]; clinical isolate MSSA 15-4) | Anti-bacterial activity (MIC), strain MSSA 15-5 ([8]; clinical isolate MSSA 15-5) | Anti-bacterial activity (MIC), strain MSSA 15-6 ([8]; clinical isolate MSSA 15-6) | Anti-bacterial activity (MIC), strain MSSE 15-3 ([9]; clinical isolate MSSE 15-3) | Anti-bacterial activity (MIC), strain MSSE 15-4 ([9]; clinical isolate MSSE 15-4) | Anti-bacterial activity (MIC), strain MSSE 15-5 ([9]; clinical isolate MSSE 15-5) | Anti-bacterial activity (MIC), strain MSSE 15-6 ([9]; clinical isolate MSSE 15-6)
24%: inhibition at 30 µM [10]
8 µg/mL: Anti-bacterial activity (MIC), strain EFM 15-4 ([2]; clinical isolate EFM 15-4) | Anti-bacterial activity (MIC), strain EFM 15-5 ([2]; clinical isolate EFM 15-5) | Anti-bacterial activity (MIC), strain EFM 15-6 ([2]; clinical isolate EFM 15-6) | Anti-bacterial activity (MIC), strain BCA 14-5 ([4]; clinical isolate BCA 14-5) | Anti-bacterial activity (MIC), strain SPN 16-2 ([5]; clinical isolate SPN 16-2)
